Test results: US10688196B2, “Cross-linking agents of collagen fibers for the use in the treatment of corneal ectasia” (SOOFT ITALIA SPA, priority 2015, dated 2020)

What was measured:
[1] = compared with solubility in water; cited from earlier work
[2] = test system: bovine cornea; conditions: compared to riboflavin in deionized water; cited from earlier work
[3] = riboflavin solutions, 40 W fluorescent light, 1350 foot-candles; cited from earlier work
[4] = Riboflavin titer determination before and after sterilization (stability); format: physicochemical; conditions: 1 atm, 121° C.
Description: Riboflavin Titer Determination

[5] = ROS (superoxide anion) production on 366 nm irradiation, measured by reduction of Nitro Blue Tetrazolium to Formazan Blue (absorbance at 560 nm); conditions: at different light intensities
Protocol: The rational of the method is based on the fact that some organic molecules, both natural and synthetic, when irradiated with a particular wavelength, activate and, by interacting with oxygen, produce superoxide anion. […] As the amount of produced superoxide anion correlates with the amount of reduced NBT, from the absorption rate of reduced NBT is obtained the amount of ROS, thereby the ROS production can be expressed as function of irradiation time (minutes).
The ROS measurement is performed by a photoactivation chamber which enables to irradiate in controlled conditions the solutions of photoactivator and detector. The controlled parameters are emission specificity, uniform radiance, irradiation intensity, irradiation time.
Riboflavin-5′-(dihydrogen phosphate), monosodium salt, control sample, NBT control sample and reference sample were irradiated at different incident light intensity (99 μW/cm^2, 223 μW/cm^2, 633 μW/cm^2) (366 nm wavelength) in the photoactivation chamber, and absorbance at 560 nm is recorded. During the irradiation the temperature of the solutions was measured. […] Therefore reasonably the effect of temperature is marginal on these absorbance measures.
The two samples were irradiated in the photoactivation chamber by 99 μW/cm^2 incident light, and absorbance at 560 nm was recorded according to the above described procedure. […]

[6] = test system: cornea; conditions: UVA irradiation at 370 nm, immediately after irradiation; cited from earlier work

Compound	effect on riboflavin aqueous solubility [1]	effect on riboflavin permeability (bovine cornea) [2]	stabilizing effect on riboflavin (photodegradation) [3]	other results
2-Hydroxypropyl-β-cyclodextrin	failed to enhance drug solubility at any significant level	no significant improvement in drug permeation	–	–
CSCCC(N)C(=O)O (racemic) [DL-methionine]	–	–	76.3%	–
Cc1cc2nc3c(=O)[nH]c(=O)nc-3n(C[C@H](O)[C@H](O)[C@H](O)COP(=O)([O-])O)c2cc1C.[Na+] [Riboflavin phosphate, Riboflavin-5-Phosphate Sodium]	–	–	–	Riboflavin % by weight ([4]; in presence of EDTA H4 (0.1% p/p), Tris (0.05% p/p) and phosphate buffer, sterilization 20 min): 67.0 % by weight; Riboflavin % by weight ([4]; in presence of EDTA H4 (0.1% p/p), Tris (0.05% p/p) and phosphate buffer, sterilization 30 min): 60.0 % by weight; Riboflavin % by weight ([4]; in presence of EDTA H4 (0.1% p/p), Tris (0.05% p/p) and phosphate buffer, sterilization 45 min): 50.0 % by weight; Riboflavin % by weight ([4]; in presence of borate buffer, sterilization 20 min): 68.0 % by weight; Riboflavin % by weight ([4]; in presence of distilled water, sterilization 20 min): 95.0 % by weight; Riboflavin % by weight ([4]; in presence of distilled water, sterilization 30 min): 92.0 % by weight; Riboflavin % by weight ([4]; in presence of distilled water, sterilization 45 min): 90.0 % by weight; Riboflavin % by weight ([4]; in presence of phosphate buffer, sterilization 20 min): 65.0 % by weight; Riboflavin % by weight ([4]; in presence of phosphate buffer, sterilization 30 min): 40.0 % by weight; Riboflavin % by weight ([4]; in presence of phosphate buffer, sterilization 45 min): 39.0 % by weight; change of the absorption on irradiation [5]: no appreciable change of the absorption; increase of the biomechanical rigidity of the cornea [6]: about 300%
O=C([O-])CN(CCN(CC(=O)[O-])CC(=O)O)CC(=O)O.[Na+].[Na+] [disodium ethylenediamine (EDTA)]	–	–	96.2%	–
COC(=O)c1ccc(O)cc1 [methylparaben]	–	–	86.4%	–
N[C@@H](CCC(=O)N[C@@H](CS)C(=O)NCC(=O)O)C(=O)O [reduced glutathione]	–	–	26.2%	–
O=S([O-])([O-])=S.[Na+].[Na+] [sodium thiosulfate]	–	–	72.9%	–
NC(N)=S [thiourea]	–	–	88.2%	–
OC[C@H]1O[C@@H]2O[C@H]3[C@H](O)[C@@H](O)[C@@H](O[C@H]4[C@H](O)[C@@H](O)[C@@H](O[C@H]5[C@H](O)[C@@H](O)[C@@H](O[C@H]6[C@H](O)[C@@H](O)[C@@H](O[C@H]7[C@H](O)[C@@H](O)[C@@H](O[C@H]1[C@H](O)[C@H]2O)O[C@@H]7CO)O[C@@H]6CO)O[C@@H]5CO)O[C@@H]4CO)O[C@@H]3CO [α-cyclodextrin]	increased riboflavin solubility	no significant improvement in drug permeation	–	–
OC[C@H]1O[C@@H]2O[C@H]3[C@H](O)[C@@H](O)[C@@H](O[C@H]4[C@H](O)[C@@H](O)[C@@H](O[C@H]5[C@H](O)[C@@H](O)[C@@H](O[C@H]6[C@H](O)[C@@H](O)[C@@H](O[C@H]7[C@H](O)[C@@H](O)[C@@H](O[C@H]8[C@H](O)[C@@H](O)[C@@H](O[C@H]1[C@H](O)[C@H]2O)O[C@@H]8CO)O[C@@H]7CO)O[C@@H]6CO)O[C@@H]5CO)O[C@@H]4CO)O[C@@H]3CO [β-cyclodextrin]	increased riboflavin solubility	enhances riboflavin permeability	–	–
OC[C@H]1O[C@@H]2O[C@H]3[C@H](O)[C@@H](O)[C@@H](O[C@H]4[C@H](O)[C@@H](O)[C@@H](O[C@H]5[C@H](O)[C@@H](O)[C@@H](O[C@H]6[C@H](O)[C@@H](O)[C@@H](O[C@H]7[C@H](O)[C@@H](O)[C@@H](O[C@H]8[C@H](O)[C@@H](O)[C@@H](O[C@H]9[C@H](O)[C@@H](O)[C@@H](O[C@H]1[C@H](O)[C@H]2O)O[C@@H]9CO)O[C@@H]8CO)O[C@@H]7CO)O[C@@H]6CO)O[C@@H]5CO)O[C@@H]4CO)O[C@@H]3CO [γ-cyclodextrin]	failed to enhance drug solubility at any significant level	no significant improvement in drug permeation	–	–
ribonucleic acid	–	–	59.3%	–
